This assay addresses T1, Human full-length diacylglycerol:acylCoA acyltransferase 1 (DGAT-1) (Homo sapiens, UniProt O75907).
T1 construct: Human full-length diacylglycerol:acylCoA acyltransferase 1 (DGAT-1) was expressed in Sf9 insect cells; made in house; host or cells: Sf9 insect cells (baculovirus)
T1 sequence (O75907 1-488): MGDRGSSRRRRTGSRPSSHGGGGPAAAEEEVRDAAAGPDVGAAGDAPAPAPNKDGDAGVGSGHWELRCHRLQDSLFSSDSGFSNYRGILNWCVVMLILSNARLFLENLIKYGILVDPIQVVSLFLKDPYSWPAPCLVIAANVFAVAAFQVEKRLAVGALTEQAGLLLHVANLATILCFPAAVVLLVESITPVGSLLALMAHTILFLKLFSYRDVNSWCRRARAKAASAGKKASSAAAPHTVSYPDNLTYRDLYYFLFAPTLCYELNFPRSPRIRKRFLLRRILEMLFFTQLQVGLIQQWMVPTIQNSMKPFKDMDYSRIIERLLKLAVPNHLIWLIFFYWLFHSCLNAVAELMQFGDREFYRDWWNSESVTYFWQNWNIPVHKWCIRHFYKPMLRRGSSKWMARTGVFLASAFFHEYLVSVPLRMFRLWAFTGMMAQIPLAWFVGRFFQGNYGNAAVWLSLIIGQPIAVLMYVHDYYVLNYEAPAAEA
Put plainly: In vitro DGAT-1 inhibition, Assay 1. The following applies: Sf9 microsomes at 25 μg/mL, [14C]decanoylCoA, eight inhibitor concentrations; average where n > 1. The class given is biochemical. The protocol: Human full-length diacylglycerol:acylCoA acyltransferase 1 (DGAT-1) was expressed in Sf9 insect cells which are then lysed and a crude membrane fraction (105,000×g pellet) was prepared. The DGAT-1 gene is a human DGAT-1 gene described in J Biol Chem 273:26765 (1998) and U.S. Pat. No. 6,100,077.
In vitro inhibition of DGAT-1 was measured using a modification, further described below, of the assay methodology described in U.S. Pat. No. 6,994,956 B2. The cells were cultured as follows. Sf9 cells (20 L) were infected with 4 mL of DGAT-1 Baculovirus Infected Insect Cells (BIIC) for 72 hours in a Wave Bioreactor System 20/50P (Wave Biotec/GE Healthcare).
Crude DGAT-1 microsomes were prepared as follows. Cell pellets were washed once with ice-cold Dulbecco's phosphate-buffered saline. Cells were collected in tabletop centrifuge (Beckman GS-6KR), 15 minutes, 2000×g, 4° C. Twenty (20) mL of ice-cold Microsome Buffer (MB) was added per 5 g of cell pellet. The suspension was passed through a microfluidizer 3 times (18K psi). […] The microsome concentration was determined using Bio-Rad Protein DC Protein Assay. […]
The Microsome Buffer, used for microsome preparation, was prepared by conventional means and contained 125 mM sucrose, 3 mM imidazole, 0.2 μg/mL aprotinin, 0.2 μg/mL leupeptin and 5 mM dithiothreitol (Cleland's reagent) at pH-7.4 DGAT-1 activity was measured in 384-well format in a total assay volume of 20 μl that contained, Hepes buffer (50 mM, pH 7.5), MgCl2 (10 mM), bovine serum albumin (0.6 mg/ml), [^14C]decanoylCoA (25 μM, 58 Ci/mol) and microsomes (5.6 μg/ml) into which 1,2 dioleoyl-sn-glycerol (75 μM) in acetone has already been incorporated. […]
The reactions were allowed to proceed for 1.5 h at room temperature and then terminated by the addition of 20 μl of EDTA (40 mM). […] Plates contents were allowed to partition for 15 to 30 min before ^14C was measured in a scintillation spectrometer (Wallac Microbeta Trilux 1450-030, 12 detector in the top-count DPM mode). […]

The compound `Cc1nc(N)c2c(n1)CCN(c1ccc(C3CCC(CC(=O)O)CC3)cc1)C2=O` (stereo not drawn) [Example 13, 2-(4-(4-(4-amino-2-methyl-5-oxo-7,8-dihydropyrido[4,3-d]pyrimidin-6(5H)-yl)phenyl)cyclohexyl)acetic acid] had an IC50 of 231 nM.

In the case of `Cc1nc(N)c2c(n1)CCN(c1ccc([C@H]3CC[C@H](CC(=O)O)CC3)cc1)C2=O` [Example 14, {trans-4-[4-(4-amino-2-methyl-5-oxo-7,8-dihydropyrido[4,3-d]pyrimidin-6(5H)-yl)phenyl]cyclohexyl}acetic acid], the midpoint of inhibition, the IC50, lay at 618 nM.

With `Cc1nc(N)c2c(n1)CCN(c1ccc([C@H]3CC[C@@H](CC(=O)O)CC3)cc1)C2=O` [Example 15, {cis-4-[4-(4-amino-2-methyl-5-oxo-7,8-dihydropyrido[4,3-d]pyrimidin-6(5H)-yl)phenyl]cyclohexyl}acetic acid], the IC50 was found to be 717 nM.

As usually defined, the IC50 is the point on the concentration scale where inhibition reaches its midpoint. Low readings indicate inhibition by little substance, high ones a need for much substance.

The values above are taken from patent publication US20100197590A1, “4-AMINO-7,8-DIHYDROPYRIDO[4,3-d]PYRIMIDIN-5(6H)-ONE DERIVATIVES” (Pfizer Inc, priority 2009, published 2010).
